According to patent EP0521799A1, “Ophthalmic compositions” (YISSUM RESEARCH DEVELOPMENT COMPANY OF THE HEBREW …, priority 1991, dated 1993):

Assays:
S.aureus = assay: Preservative efficacy in emulsion (Table 2); assay type: cell-based; conditions: for Number of Organisms in 1ml Emulsion: S.aureus
Procedure: (§1) To each 20ml of emulsion, an inoculum of a microorganismal suspension (at an initial concentration of about 1-3 x 10⁸ cells per ml) was added under sterile conditions to a final concentration of about 1-3 x 10⁶ cells per ml of emulsion. Immediately upon inoculation and at 24, 48 hours, 7, 14 and 28 days thereafter, samples of 1 ml were withdrawn and eluted in a pH 7.0 sodium chloride buffer (B.P. 88 neutralizing buffer, DIFCO Laboratories, Detroit, MI, USA) to neutralize the preservatives. After about 20-30 minutes of exposure of sample to the neutralizing buffer, samples were filtered through a 0.45µm cellulose acetate filter (TE, Schueller & Schleicher). The filter and the holder were washed with 3 portions of 100 ml of sodium chloride peptone solution and then the filter was transferred to a petri dish with PCPL media which consisted of the following ingredients (per 400 ml): 20g tryptone, 1.0g yeast extract, 0.4g. dextrose, 6.0 bactoagar, 0.4g lethicin and 8.0ml Tween 80.
(§2) At 24 hours or at 2 to 5 days after the withdrawal of the sample, the number of the microorganism was counted on the petri dishes. (In order to achieve a proper count of the microorganism dilutions of the initially withdrawn sample to obtain a dilution factor of 1:10-1:50,000, were made).
(§3) Two blank emulsions without a preservative served as control for the two different neutralizing buffers.

A. niger = assay: Preservative efficacy in emulsion (Table 2); assay type: cell-based
Procedure: as §1, §2, §3

E. coli = assay: Preservative efficacy in emulsion (Table 2); assay type: cell-based
Procedure: as §1, §2, §3

C. albicans = assay: Preservative efficacy in emulsion (Table 2); assay type: cell-based
Procedure: as §1, §2, §3

P. aeruginosa = assay: Preservative efficacy in emulsion (Table 2); assay type: cell-based
Procedure: as §1, §2, §3

microorganisms = assay: Preservative efficacy of single preservatives, overall judgement; assay type: cell-based
Procedure: as §1, §2, §3
The same experiment was also carried out with Chlorbutol alone instead of Thimerosal.

Albino rabbits = assay: Intraocular pressure (IOP) after a single topical dose of HU-211 emulsion; assay type: in vivo; conditions: for decrease of IOP in the contralateral eye: untreated left eye, about 4 hours after administration
Procedure: Albino rabbits of both sexes weighing 2.25 kg were used. All rabbits chosen had no signs of ocular pathology.
(§4) The intraocular pressure (IOP) was measured by a Digilab pneumotonometer model 30R. For IOP measurement, one drop of the local anaesthetic benoxinate HCl (Fischer Pharmaceuticals, Israel) diluted 1:3 in sterile solution was instilled into each eye. In order to ensure reproducibility of IOP readings, the animals were accustomed to the experimental procedure by repeated handling.
Basal IOP was measured for 2 days prior to drug application by measuring the IOP 5 times over an 11 hrs. period (starting at 8am and ending at 7pm). Each time IOP was measured twice and an average of two readings was obtained.
IOP was measured at the time of drug application and at 1.5, 4, 6 and 11 hrs. thereafter.
Two groups of animals were tested, each by a different experimenter. The first group which consisted of 20 rabbits is referred to herein as " Group I" and the second group which consisted of 10 rabbits is referred to herein as "Group II". The two groups received, however, exactly the same treatment.
The treatment consisted of the application of a single dose of 50µl of a 0.1% (w/v) of HU-211 preparation in accordance with the invention into the lower cul-de-sac of the right eye of each rabbit. The eye was then kept open for a few more seconds, while excessive liquid spilling over the eyelid was wiped off. The left eye was not treated.

[1] = HU-211 concentration in emulsions on storage; assay type: physicochemical; conditions: in emulsion
Procedure: The HU-211 concentration was measured at different temperatures after various storage times and the results are shown in Fig. 11.

[2] = system: ocularly hypertensive rabbits; assay: IOP after topical Δ⁸-THC composition, hypertensive rabbits; assay type: in vivo, albino rabbits; conditions: composition of the invention comprising 0.4% Δ⁸-THC
Procedure: as §4
(§5) A composition in accordance with the invention comprising 0.4% Δ⁸-THC was administered to the right eyes of albino rabbits. The administration of the composition and IOP measurements were performed as described above under (A).
(§6) Both ocularly hypertensive and normo-tensive albino rabbits were used in the study.

[3] = system: ocularly normo-tensive rabbits; assay: IOP after topical Δ⁸-THC composition, normo-tensive rabbits; assay type: in vivo, albino rabbits; conditions: composition of the invention comprising 0.4% Δ⁸-THC
Procedure: as §4, §5, §6

[4] = Oh (immediately upon inoculation)
[5] = single preservative in emulsion
[6] = treated eye, single dose 50µl of 0.1% (w/v) HU-211

| Compound | Number of Organisms in 1ml Emulsion (S.aureus; [4]) | Number of Organisms in 1ml Emulsion (A. niger; 24h) | Number of Organisms in 1ml Emulsion (A. niger; 48h) | Number of Organisms in 1ml Emulsion (E. coli; 48h) | Number of Organisms in 1ml Emulsion (E. coli; [4]) | Number of Organisms in 1ml Emulsion (C. albicans; 24h) | Number of Organisms in 1ml Emulsion (C. albicans; 48h) | Number of Organisms in 1ml Emulsion (C. albicans; [4]) | Number of Organisms in 1ml Emulsion (P. aeruginosa; 24h) | Number of Organisms in 1ml Emulsion (P. aeruginosa; 48h) | Number of Organisms in 1ml Emulsion (P. aeruginosa; [4]) | further results |
| --- | --- | --- | --- | --- | --- | --- | --- | --- | --- | --- | --- | --- |
| N=C(NCCCCCCNC(=N)NC(=N)Nc1ccc(Cl)cc1)NC(=N)Nc1ccc(Cl)cc1 [CHL, Chlorhexidine gluconate] | 3.5 x 10^6 | 38 | 54 | 5 x 10^6 | 5.5 x 10^6 | >600 | 433 | 0.9 x 10^6 | 10^7 | 10^7 | 4.2 x 10^6 |  |
| CC(C)(O)C(Cl)(Cl)Cl [Chlorbutol] |  |  |  |  |  |  |  |  |  |  |  | compliance with B.P. requirements (microorganisms; [5]): did not meet the B.P. requirements; preservative protection (microorganisms; [5]): No total preservative protection was achieved |
| CCCCCCC(C)(C)c1cc(O)c2c(c1)OC(C)(C)[C@H]1CC=C(CO)C[C@H]21 [HU-211] |  |  |  |  |  |  |  |  |  |  |  | decrease of IOP in the contralateral eye (Albino rabbits; Group I): about 11.4%; decrease of IOP in the contralateral eye (Albino rabbits; Group II): ~12.1%; time until which the decrease in IOP persisted (Albino rabbits; treated eye, percentage of IOP change from basal level (Fig. 14)): about 11 hours; time after which basal IOP levels were resumed (Albino rabbits; [6]): about 11 hrs; time for which the decrease in IOP lasted (Albino rabbits; [6]): about 6 hrs; IOP (Albino rabbits; treated right eye, single dose of 50µl of 0.1% (w/v) HU-211 emulsion): dramatic decrease in IOP; HU-211 concentration ([1]; 8 months at 4°C, 25°C, 30°C and 37°C): essentially no change; HU-211 concentration ([1]; storage at 50°C): marked decrease in concentration |
| C[CH2][Hg][S]c1ccccc1C(=O)O [THI, Thimerosal] |  |  |  |  |  |  |  |  |  |  |  | maintenance of total killing (S.aureus; S. aureus, after 48 hours): contamination was noted; preservative protection (C. albicans; at 24h): not able to protect totally; maintenance of total killing (P. aeruginosa; after 48 hours): contamination was noted; preservative effect compared with the other tested preservatives (microorganisms; 0.01% Thimerosal vs 0.02% benzalkonium chloride and 0.05% chlorhexadiene gluconate): much better preservative effect |
| Benzalkonium chloride [BZK] | 7.3 x 10^6 | 29 | 43 | 5 x 10^6 | 2.6 x 10^6 | >600 | 433 | 1.0 x 10^6 | 10^7 | 10^7 | 4.2 x 10^6 | Number of Organisms in 1ml Emulsion (S.aureus; 24h): 10^7; Number of Organisms in 1ml Emulsion (S.aureus; 48h): 10^7; Number of Organisms in 1ml Emulsion (A. niger; [4]): 1.5 x 10^4; Number of Organisms in 1ml Emulsion (E. coli; 24h): 10^7 |
| Δ⁸-THC |  |  |  |  |  |  |  |  |  |  |  | duration of the reduction of IOP [2]: long-lasting; IOP ([2]; right eye): dramatically reduces the IOP; duration of the reduction of IOP [3]: long-lasting; IOP ([3]; right eye): dramatically reduces the IOP |
